# Assays:
# [1] = target: Tyrosine-protein kinase BTK (Homo sapiens) (UniProt Q06187)
# [2] = target: High mobility group protein B2 (Homo sapiens) (UniProt P26583)
# [3] = target: Non-POU domain-containing octamer-binding protein (Homo sapiens) (UniProt Q15233)
# [4] = target: Nucleolar MIF4G domain-containing protein 1 (Homo sapiens) (UniProt Q5C9Z4)
# [5] = target: Thiol S-methyltransferase TMT1A (Homo sapiens) (UniProt Q9H8H3)
# [6] = target: Clathrin light chain A (Homo sapiens) (UniProt P09496)
# [7] = target: Cullin-associated NEDD8-dissociated protein 1 (Homo sapiens) (UniProt Q86VP6)
# [8] = target: Tyrosine-protein kinase CSK (Homo sapiens) (UniProt P41240)
# Malectin (Homo sapiens) = Malectin (Homo sapiens) (UniProt Q14165)
# [9] = target: Solute carrier family 35 member E1 (Homo sapiens) (UniProt Q96K37)
# [10] = target: Putative heat shock protein HSP 90-beta 2 (Homo sapiens) (UniProt Q58FF8)
# [11] = target: FAD synthase (Homo sapiens) (UniProt Q8NFF5)
# [12] = target: WASH complex subunit 4 (Homo sapiens) (UniProt Q2M389)
# [13] = target: Nuclear factor NF-kappa-B p105 subunit (Homo sapiens) (UniProt P19838)
# [14] = target: PAS domain-containing serine/threonine-protein kinase (Homo sapiens) (UniProt Q96RG2)
# [15] = target: Lamina-associated polypeptide 2, isoform alpha (Homo sapiens) (UniProt P42166)
# [16] = target: NADH dehydrogenase [ubiquinone] flavoprotein 2, mitochondrial (Homo sapiens) (UniProt P19404)
# Homo sapiens [17] = organism: Homo sapiens
# [18] = target: Translocator protein (Homo sapiens) (UniProt P30536)
# [19] = target: Receptor-interacting serine/threonine-protein kinase 2 (Homo sapiens) (UniProt O43353)
# [20] = target: La-related protein 7 (Homo sapiens) (UniProt Q4G0J3)
# [21] = target: Small ribosomal subunit protein eS1 (Homo sapiens) (UniProt P61247)
# [22] = target: SPATS2-like protein (Homo sapiens) (UniProt Q9NUQ6)
# [23] = target: Dihydrolipoyllysine-residue acetyltransferase component of pyruvate dehydrogenase complex, mitochondrial (Homo sapiens) (UniProt P10515)
# [24] = target: Importin subunit beta-1 (Homo sapiens) (UniProt Q14974)
# Cullin-5 (Homo sapiens) = Cullin-5 (Homo sapiens) (UniProt Q93034)
# [25] = target: Programmed cell death protein 2-like (Homo sapiens) (UniProt Q9BRP1)
# [26] = target: Calcium load-activated calcium channel (Homo sapiens) (UniProt Q9UM00)
# Titin (Homo sapiens) = Titin (Homo sapiens) (UniProt Q8WZ42)
# [27] = target: CCAAT/enhancer-binding protein zeta (Homo sapiens) (UniProt Q03701)
# [28] = target: Nck-associated protein 1-like (Homo sapiens) (UniProt P55160)
# Homo sapiens [29] = organism: Homo sapiens; remark: listed apart in the source
# [30] = target: 26S proteasome regulatory subunit 10B (Homo sapiens) (UniProt P62333)
# [31] = target: Serine/threonine-protein kinase/endoribonuclease IRE2 (Homo sapiens) (UniProt Q76MJ5)
# [32] = target: T-complex protein 1 subunit epsilon (Homo sapiens) (UniProt P48643)
# [33] = target: G2/mitotic-specific cyclin-B1 (Homo sapiens) (UniProt P14635)
# [34] = target: Protein LSM12 (Homo sapiens) (UniProt Q3MHD2)
# [35] = target: 14-3-3 protein sigma (Homo sapiens) (UniProt P31947)
# [36] = target: Echinoderm microtubule-associated protein-like 4 (Homo sapiens) (UniProt Q9HC35)
# [37] = target: Acyl-CoA dehydrogenase family member 11 (Homo sapiens) (UniProt Q709F0)
# [38] = target: Phosphopentomutase (Homo sapiens) (UniProt Q96G03)
# Erlin-2 (Homo sapiens) = Erlin-2 (Homo sapiens) (UniProt O94905)
# [39] = target: Bone marrow stromal antigen 2 (Homo sapiens) (UniProt Q10589)
# [40] = target: F-actin-capping protein subunit alpha-1 (Homo sapiens) (UniProt P52907)
# [41] = target: GDP-mannose 4,6 dehydratase (Homo sapiens) (UniProt O60547)
# [42] = target: Very long-chain specific acyl-CoA dehydrogenase, mitochondrial (Homo sapiens) (UniProt P49748)
# [43] = target: DNA mismatch repair protein Msh6 (Homo sapiens) (UniProt P52701)
# Further: assay method not described here.
# Chain of Clathrin light chain A (Homo sapiens) (P09496 whole entry): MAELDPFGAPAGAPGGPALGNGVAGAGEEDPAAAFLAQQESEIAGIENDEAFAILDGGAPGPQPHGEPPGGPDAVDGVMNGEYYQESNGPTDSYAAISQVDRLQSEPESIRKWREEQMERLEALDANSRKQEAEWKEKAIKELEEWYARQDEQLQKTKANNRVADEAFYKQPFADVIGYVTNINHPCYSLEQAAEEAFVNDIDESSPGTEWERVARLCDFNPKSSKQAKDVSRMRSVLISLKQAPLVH
# Chain of Malectin (Homo sapiens) (Q14165 whole entry): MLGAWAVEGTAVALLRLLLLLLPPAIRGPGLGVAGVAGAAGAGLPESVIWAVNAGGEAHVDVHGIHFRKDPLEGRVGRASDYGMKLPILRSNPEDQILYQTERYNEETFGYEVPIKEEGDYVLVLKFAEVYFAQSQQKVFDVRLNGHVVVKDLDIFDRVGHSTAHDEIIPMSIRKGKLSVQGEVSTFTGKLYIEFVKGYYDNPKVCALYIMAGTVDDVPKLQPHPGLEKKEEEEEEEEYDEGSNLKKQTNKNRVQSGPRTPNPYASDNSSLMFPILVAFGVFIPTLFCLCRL
# Chain of Thiol S-methyltransferase TMT1A (Homo sapiens) (Q9H8H3 whole entry): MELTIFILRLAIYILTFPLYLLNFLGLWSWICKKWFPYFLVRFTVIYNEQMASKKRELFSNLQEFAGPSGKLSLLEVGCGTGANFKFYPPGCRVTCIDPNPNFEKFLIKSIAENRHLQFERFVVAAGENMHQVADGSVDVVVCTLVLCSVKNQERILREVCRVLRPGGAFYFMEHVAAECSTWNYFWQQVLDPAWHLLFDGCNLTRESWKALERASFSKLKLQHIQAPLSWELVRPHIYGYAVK
# Chain of Non-POU domain-containing octamer-binding protein (Homo sapiens) (Q15233 whole entry, the tested form may be a part): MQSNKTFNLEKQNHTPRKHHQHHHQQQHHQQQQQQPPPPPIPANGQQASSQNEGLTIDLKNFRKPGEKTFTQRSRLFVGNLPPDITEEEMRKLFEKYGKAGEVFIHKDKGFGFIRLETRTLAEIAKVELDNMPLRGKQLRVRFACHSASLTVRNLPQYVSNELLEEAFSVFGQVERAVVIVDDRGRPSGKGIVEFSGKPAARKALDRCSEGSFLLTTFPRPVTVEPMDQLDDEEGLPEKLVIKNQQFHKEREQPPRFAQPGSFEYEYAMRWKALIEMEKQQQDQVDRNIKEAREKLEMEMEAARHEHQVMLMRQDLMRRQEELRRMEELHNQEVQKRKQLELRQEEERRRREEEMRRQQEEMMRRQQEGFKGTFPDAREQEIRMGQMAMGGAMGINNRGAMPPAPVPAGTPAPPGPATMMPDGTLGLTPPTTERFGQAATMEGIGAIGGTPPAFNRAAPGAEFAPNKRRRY
# Chain of Cullin-associated NEDD8-dissociated protein 1 (Homo sapiens) (Q86VP6 whole entry): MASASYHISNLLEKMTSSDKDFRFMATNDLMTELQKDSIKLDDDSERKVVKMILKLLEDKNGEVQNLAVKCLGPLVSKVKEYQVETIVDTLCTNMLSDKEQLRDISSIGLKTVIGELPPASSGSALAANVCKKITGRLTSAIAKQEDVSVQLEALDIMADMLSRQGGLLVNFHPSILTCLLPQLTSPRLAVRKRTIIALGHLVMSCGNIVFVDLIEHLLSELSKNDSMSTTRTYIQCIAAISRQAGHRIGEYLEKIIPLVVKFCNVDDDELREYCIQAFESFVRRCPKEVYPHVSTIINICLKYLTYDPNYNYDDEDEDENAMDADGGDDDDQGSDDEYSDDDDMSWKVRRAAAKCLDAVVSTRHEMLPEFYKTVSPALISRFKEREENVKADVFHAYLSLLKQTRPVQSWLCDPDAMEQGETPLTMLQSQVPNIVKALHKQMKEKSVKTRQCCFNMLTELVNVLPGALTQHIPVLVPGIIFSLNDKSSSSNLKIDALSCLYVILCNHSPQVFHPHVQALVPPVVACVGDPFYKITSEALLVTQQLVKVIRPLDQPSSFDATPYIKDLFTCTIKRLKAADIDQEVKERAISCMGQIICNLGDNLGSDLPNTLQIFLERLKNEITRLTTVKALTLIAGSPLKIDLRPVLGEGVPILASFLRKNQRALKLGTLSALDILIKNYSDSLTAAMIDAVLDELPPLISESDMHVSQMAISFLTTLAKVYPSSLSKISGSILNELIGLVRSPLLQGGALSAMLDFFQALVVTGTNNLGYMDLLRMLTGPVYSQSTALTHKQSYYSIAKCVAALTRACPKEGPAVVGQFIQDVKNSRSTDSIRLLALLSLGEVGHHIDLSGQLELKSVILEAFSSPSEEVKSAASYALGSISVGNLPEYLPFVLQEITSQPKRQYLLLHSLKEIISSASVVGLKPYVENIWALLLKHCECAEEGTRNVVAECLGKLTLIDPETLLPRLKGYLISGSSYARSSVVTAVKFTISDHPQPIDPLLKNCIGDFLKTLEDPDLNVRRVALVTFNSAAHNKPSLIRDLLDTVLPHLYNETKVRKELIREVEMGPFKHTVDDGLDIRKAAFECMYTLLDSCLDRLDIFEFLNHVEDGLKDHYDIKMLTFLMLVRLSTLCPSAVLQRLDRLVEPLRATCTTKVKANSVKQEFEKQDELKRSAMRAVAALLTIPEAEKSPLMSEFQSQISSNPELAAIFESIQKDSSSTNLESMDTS
# Chain of 26S proteasome regulatory subunit 10B (Homo sapiens) (P62333 whole entry): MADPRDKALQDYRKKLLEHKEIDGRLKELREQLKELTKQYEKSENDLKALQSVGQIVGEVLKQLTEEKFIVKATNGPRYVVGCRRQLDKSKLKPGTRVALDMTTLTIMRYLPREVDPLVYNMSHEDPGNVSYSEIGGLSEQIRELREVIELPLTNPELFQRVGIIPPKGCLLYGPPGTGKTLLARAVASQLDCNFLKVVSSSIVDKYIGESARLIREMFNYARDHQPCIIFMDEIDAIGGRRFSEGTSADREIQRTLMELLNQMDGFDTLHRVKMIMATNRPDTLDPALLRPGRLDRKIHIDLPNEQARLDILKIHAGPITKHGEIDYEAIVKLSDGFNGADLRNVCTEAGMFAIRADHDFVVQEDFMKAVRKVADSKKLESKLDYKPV
# Chain of G2/mitotic-specific cyclin-B1 (Homo sapiens) (P14635 whole entry): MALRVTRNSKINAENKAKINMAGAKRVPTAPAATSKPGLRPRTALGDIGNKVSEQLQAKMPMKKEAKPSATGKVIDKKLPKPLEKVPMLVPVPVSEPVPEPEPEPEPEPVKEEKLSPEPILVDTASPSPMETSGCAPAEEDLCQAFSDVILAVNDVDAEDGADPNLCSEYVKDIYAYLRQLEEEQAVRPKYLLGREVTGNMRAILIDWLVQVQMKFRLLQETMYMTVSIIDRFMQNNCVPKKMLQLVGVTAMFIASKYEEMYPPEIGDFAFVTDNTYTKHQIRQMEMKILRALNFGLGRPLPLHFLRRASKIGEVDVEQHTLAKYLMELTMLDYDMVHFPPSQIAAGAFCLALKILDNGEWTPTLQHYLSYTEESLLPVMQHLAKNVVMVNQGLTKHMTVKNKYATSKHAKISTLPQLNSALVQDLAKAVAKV
# Chain of T-complex protein 1 subunit epsilon (Homo sapiens) (P48643 whole entry, one chain of several): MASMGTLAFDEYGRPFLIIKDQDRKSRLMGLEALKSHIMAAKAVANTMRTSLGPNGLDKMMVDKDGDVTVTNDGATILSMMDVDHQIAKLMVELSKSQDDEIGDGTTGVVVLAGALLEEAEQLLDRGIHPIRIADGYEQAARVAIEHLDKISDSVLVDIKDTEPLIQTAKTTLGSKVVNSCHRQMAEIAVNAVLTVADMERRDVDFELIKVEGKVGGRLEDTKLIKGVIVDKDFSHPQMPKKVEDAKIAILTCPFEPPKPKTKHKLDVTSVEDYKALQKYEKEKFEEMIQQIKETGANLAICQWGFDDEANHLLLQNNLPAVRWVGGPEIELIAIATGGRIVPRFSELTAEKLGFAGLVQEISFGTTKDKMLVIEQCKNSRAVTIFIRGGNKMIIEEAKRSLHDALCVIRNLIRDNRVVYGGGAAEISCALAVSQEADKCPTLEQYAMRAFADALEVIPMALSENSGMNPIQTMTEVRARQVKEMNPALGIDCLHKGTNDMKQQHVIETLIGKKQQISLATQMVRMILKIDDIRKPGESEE
# Chain of Serine/threonine-protein kinase/endoribonuclease IRE2 (Homo sapiens) (Q76MJ5 35-926 limits assumed): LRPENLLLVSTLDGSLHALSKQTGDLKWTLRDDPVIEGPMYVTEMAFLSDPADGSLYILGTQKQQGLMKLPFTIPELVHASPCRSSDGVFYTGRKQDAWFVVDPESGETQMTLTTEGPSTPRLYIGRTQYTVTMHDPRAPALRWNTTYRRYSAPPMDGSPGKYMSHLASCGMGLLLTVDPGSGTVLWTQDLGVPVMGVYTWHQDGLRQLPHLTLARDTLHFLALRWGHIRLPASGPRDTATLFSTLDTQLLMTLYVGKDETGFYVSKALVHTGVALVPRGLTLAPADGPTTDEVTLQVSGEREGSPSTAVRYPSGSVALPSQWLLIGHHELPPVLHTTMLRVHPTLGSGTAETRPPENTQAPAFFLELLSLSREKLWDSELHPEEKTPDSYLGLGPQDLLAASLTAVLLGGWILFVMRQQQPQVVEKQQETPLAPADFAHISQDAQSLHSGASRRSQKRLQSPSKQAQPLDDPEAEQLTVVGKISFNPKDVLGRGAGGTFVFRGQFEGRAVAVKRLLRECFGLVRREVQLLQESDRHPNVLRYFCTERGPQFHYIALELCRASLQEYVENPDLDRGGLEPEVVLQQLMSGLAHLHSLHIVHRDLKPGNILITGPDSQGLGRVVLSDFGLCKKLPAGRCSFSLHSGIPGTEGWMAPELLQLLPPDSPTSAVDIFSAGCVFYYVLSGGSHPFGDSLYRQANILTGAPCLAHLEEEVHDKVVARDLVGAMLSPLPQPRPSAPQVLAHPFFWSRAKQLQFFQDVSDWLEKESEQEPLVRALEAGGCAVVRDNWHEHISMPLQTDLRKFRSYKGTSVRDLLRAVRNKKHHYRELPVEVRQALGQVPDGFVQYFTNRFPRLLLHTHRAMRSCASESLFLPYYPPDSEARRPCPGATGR
# Chain of Translocator protein (Homo sapiens) (P30536 whole entry): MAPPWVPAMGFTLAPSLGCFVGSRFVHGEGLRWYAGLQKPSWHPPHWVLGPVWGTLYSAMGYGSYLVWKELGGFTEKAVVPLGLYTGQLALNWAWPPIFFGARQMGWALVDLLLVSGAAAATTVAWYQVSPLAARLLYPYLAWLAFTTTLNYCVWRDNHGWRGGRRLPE
Compound,ED50 [1] [µM],ED50 [2] [µM],ED50 [3] [µM],ED50 [5] [µM],ED50 [6] [µM],ED50 [7] [µM],ED50 [8] [µM],ED50 (Malectin (Homo sapiens)) [µM],ED50 [9] [µM],ED50 [10] [µM],ED50 [15] [µM],ED50 [18] [µM],ED50 [19] [µM],ED50 [23] [µM],ED50 [24] [µM],ED50 [26] [µM],ED50 (Titin (Homo sapiens)) [µM],ED50 [28] [µM],ED50 [30] [µM],ED50 [31] [µM],other results
Cc1ccc(C(=O)Nc2cccc(C(F)(F)F)c2)cc1Nc1nc(-c2cccnc2)nc2c1cnn2C,5.02,11.3,3.17,30.4,0.55,0.11,4.52,95.1,0.00439,0.0112,3.35,0.103,29.5,2.58,3.71,0.0219,0.0522,41.5,43.4,2.7,ED50 [4]: 0.00322 µM; ED50 [11]: 0.998 µM; ED50 [12]: 0.0229 µM; ED50 [13]: 0.657 µM; ED50 [14]: 14.7 µM; ED50 [16]: 0.571 µM; ED50 (Homo sapiens [17]): 0.00171 µM; ED50 [20]: 13.7 µM; ED50 [21]: 2.45 µM; ED50 [22]: 0.0415 µM; ED50 (Cullin-5 (Homo sapiens)): 0.676 µM; ED50 [25]: 4.49 µM; ED50 [27]: 3.24 µM; ED50 (Homo sapiens [29]): 3.23 µM; ED50 [32]: 0.000216 µM; ED50 [33]: 0.205 µM; ED50 [34]: 0.00519 µM; ED50 [35]: 0.00306 µM; ED50 [36]: 0.761 µM
Cc1ccc(C(=O)Nc2cccc(C(F)(F)F)c2)cc1Nc1nc(-c2cccnc2)nc2nn(C)cc12,5.75,0.0527,0.0517,2.97,0.0659,1.74,1.86,7.05,55.3,0.573,6.61,0.0238,0.073,0.0551,0.0534,0.281,0.0126,1530,0.164,1.71,ED50 [37]: 0.137 µM; ED50 [38]: 149 µM; ED50 (Erlin-2 (Homo sapiens)): 3.06 µM; ED50 [39]: 1250 µM; ED50 [40]: 1.49 µM; ED50 [41]: 6770 µM; ED50 [42]: 0.051 µM; ED50 [32]: 0.0516 µM; ED50 [33]: 5.61 µM; ED50 [34]: 5.58 µM; ED50 [43]: 0.0495 µM

# Source: ChEMBL document CHEMBL5649169 (ChemMedChem, 2018)
